Experimental data: ChEMBL document CHEMBL1687756 (Antimicrob Agents Chemother, 2010)

Legend:
[1] = Ratio of drug level in liver to plasma in Beagle dog at 5 mg/kg, sc after 6 months; assay type: ADME, organism-based, Canis lupus familiaris; parameters: dose 5 mg/kg, route subcutaneous
[2] = Drug level in Beagle dog thymus at 5 mg/kg administered intramuscularly after 3 months; assay type: ADME, organism-based, Canis lupus familiaris; parameters: dose 5 mg/kg, route intramuscular; conditions: im, read-out: Drug uptake
[3] = Drug level in female Beagle dog spleen at 200 mg/kg, sc after 1 month; assay type: ADME, organism-based, Canis lupus familiaris; parameters: dose 200 mg/kg, route subcutaneous; conditions: read-out: Drug uptake
[4] = AUC (0 to last) in male dog at 400 mg administered intramuscularly after 85 days; conditions: plasma, im
[5] = AUC (0 to last) in female dog at 400 mg administered intramuscularly after 85 days; conditions: plasma, im
[6] = Drug level in Beagle dog thymus at 5 mg/kg administered intramuscularly after 6 months; assay type: ADME, organism-based, Canis lupus familiaris; parameters: dose 5 mg/kg, route intramuscular; conditions: im, read-out: Drug uptake
[7] = Plasma concentration in male Beagle dog at 200 mg/kg, sc after 3 months; assay type: ADME, organism-based, Canis lupus familiaris; parameters: dose 200 mg/kg, route subcutaneous
[8] = Ratio of drug level in lymph node iliac to plasma in Beagle dog at 5 mg/kg, sc after 3 months; assay type: ADME, organism-based, Canis lupus familiaris; parameters: dose 5 mg/kg, route subcutaneous
[9] = Drug level in Beagle dog muscle at injected site at 5 mg/kg administered intramuscularly after 3 months; assay type: ADME, organism-based, Canis lupus familiaris, Muscle tissue; parameters: dose 5 mg/kg, route intramuscular; conditions: im, read-out: Drug uptake
[10] = Drug level in male Beagle dog thymus at 400 mg/kg, sc after 3 months; assay type: ADME, organism-based, Canis lupus familiaris; parameters: dose 400 mg/kg, route subcutaneous; conditions: read-out: Drug uptake
[11] = Drug level in Beagle dog muscle at non-injected site at 5 mg/kg, sc after 3 months; assay type: ADME, organism-based, Canis lupus familiaris, Muscle tissue; parameters: dose 5 mg/kg, route subcutaneous; conditions: read-out: Drug uptake
[12] = Ratio of drug level in lymph node iliac to plasma in Beagle dog at 5 mg/kg administered intramuscularly after 1 month; assay type: ADME, organism-based, Canis lupus familiaris; parameters: dose 5 mg/kg, route intramuscular; conditions: im
[13] = Plasma concentration in male Beagle dog at 200 mg/kg administered intramuscularly after 3 months; assay type: ADME, organism-based, Canis lupus familiaris; parameters: dose 200 mg/kg, route intramuscular; conditions: im
[14] = Drug level in Beagle dog lymph node popliteal at 5 mg/kg administered intramuscularly after 3 months; assay type: ADME, organism-based, Canis lupus familiaris; parameters: dose 5 mg/kg, route intramuscular; conditions: im, read-out: Drug uptake
[15] = Drug level in Beagle dog skin at injected site at 5 mg/kg administered intramuscularly after 6 months; assay type: ADME, organism-based, Canis lupus familiaris, Zone of skin; parameters: dose 5 mg/kg, route intramuscular; conditions: im, read-out: Drug uptake
[16] = Ratio of drug level in thymus to plasma in Beagle dog at 5 mg/kg, sc after 3 months; assay type: ADME, organism-based, Canis lupus familiaris; parameters: dose 5 mg/kg, route subcutaneous
[17] = Plasma concentration in Beagle dog at 5 mg/kg, sc after 6 months; assay type: ADME, organism-based, Canis lupus familiaris; parameters: dose 5 mg/kg, route subcutaneous
[18] = Ratio of drug level in thymus to plasma in male Beagle dog at 400 mg/kg, sc after 1 month; assay type: ADME, organism-based, Canis lupus familiaris; parameters: dose 400 mg/kg, route subcutaneous
[19] = Cmax in Beagle dog at 5 mg/kg, sc after 184 days; assay type: ADME, organism-based, Canis lupus familiaris; parameters: dose 5 mg/kg, route subcutaneous; conditions: in vivo
[20] = Absolute bioavailability in Beagle dog at 5 mg/kg, sc after 176 days; assay type: ADME, organism-based, Canis lupus familiaris; conditions: in vivo
[21] = Drug level in Beagle dog spleen at 5 mg/kg administered intramuscularly after 3 months; assay type: ADME, organism-based, Canis lupus familiaris; parameters: dose 5 mg/kg, route intramuscular; conditions: im, read-out: Drug uptake
[22] = Drug level in Beagle dog thymus at 5 mg/kg, sc after 6 months; assay type: ADME, organism-based, Canis lupus familiaris; parameters: dose 5 mg/kg, route subcutaneous; conditions: read-out: Drug uptake
[23] = Ratio of drug level in spleen to plasma in female Beagle dog at 400 mg/kg administered intramuscularly after 3 months; assay type: ADME, organism-based, Canis lupus familiaris; parameters: dose 400 mg/kg, route intramuscular; conditions: im
[24] = Drug level in Beagle dog lymph node popliteal at 5 mg/kg administered intramuscularly after 1 month; assay type: ADME, organism-based, Canis lupus familiaris; parameters: dose 5 mg/kg, route intramuscular; conditions: im, read-out: Drug uptake
[25] = Drug level in Beagle dog spleen at 5 mg/kg, sc after 3 months; assay type: ADME, organism-based, Canis lupus familiaris; parameters: dose 5 mg/kg, route subcutaneous; conditions: read-out: Drug uptake
[26] = Tmax in male dog at 400 mg administered intramuscularly after 29 days; conditions: in vivo, im
[27] = Ratio of drug level in thymus to plasma in male Beagle dog at 200 mg/kg administered intramuscularly after 3 months; assay type: ADME, organism-based, Canis lupus familiaris; parameters: dose 200 mg/kg, route intramuscular; conditions: im
[28] = Plasma concentration in Beagle dog at 5 mg/kg administered intramuscularly after 1 month; assay type: ADME, organism-based, Canis lupus familiaris; parameters: dose 5 mg/kg, route intramuscular; conditions: im

## Cc1cc(/C=C/C#N)cc(C)c1Nc1ccnc(Nc2ccc(C#N)cc2)n1 [RILPIVIRINE]
[1]
  Kp at 4383 h: 24
[2]
  concentration at 2191.5 h: 14.7 ng/g
[3]
  concentration at 730.5 h: 14.5 ng/g
[4]
  AUC(0-t) at 2040 h: 281 µg·h/mL
[5]
  AUC(0-t) at 2040 h: 265 µg·h/mL
[6]
  concentration at 4383 h: 7.2 ng/g
[7]
  concentration at 2191.5 h: 15.2 ng/mL
[8]
  Kp at 2191.5 h: 5.2
[9]
  concentration at 2191.5 h: 142000 ng/g
[10]
  concentration at 2191.5 h: 173 ng/g
[11]
  concentration at 2191.5 h: 18.5 ng/g
[12]
  Kp at 730.5 h: 168
[13]
  concentration at 2191.5 h: 9.2 ng/mL
[14]
  concentration at 2191.5 h: 13.7 ng/g
[15]
  concentration at 4383 h: 9.5 ng/g
[16]
  Kp at 2191.5 h: 13
[17]
  concentration at 4383 h: 1.3 ng/mL
[18]
  Kp at 730.5 h: 2.9
[19]
  Cmax: 38 ng/mL
[20]
  bioavailability: 80%
[21]
  concentration at 2191.5 h: < 5 ng/g
[22]
  concentration at 4383 h: 20.2 ng/g
[23]
  Kp at 2191.5 h: 2.3
[24]
  concentration at 730.5 h: 6500 ng/g
[25]
  concentration at 2191.5 h: 9.7 ng/g
[26]
  Tmax: 17 h
[27]
  Kp at 2191.5 h: 3.8
[28]
  concentration at 730.5 h: 11.3 ng/mL
